From patent US9738677B2, “Amphotericin B derivative with reduced toxicity” (priority 2014, dated 2017)
≈ marks a conversion by molar mass, not a printed value. Entries after “also recorded” stand apart in the source; their conditions may differ.

What was measured:
[1] = ITC sterol binding, POPC LUVs containing 10% cholesterol
Protocol: Isothermal Titration calorimetry (ITC)
In an optimized isothermal titration calorimetry (ITC)-based assay, an aqueous solution of AmB was titrated with a suspension of large unilamellar vesicles (LUVs) comprised of only 1-palmitoyl-2-oleoyl-sn-glycero-3-phosphocholine (POPC), and the net exotherm was recorded. The titration was repeated using POPC LUVs containing 10% ergosterol. […] The titration was repeated using C2′epiAmB. […] The ITC assay was also conducted with cholesterol in place of ergosterol.
Experiments were performed using a NanoITC isothermal titration calorimeter (TA Instruments, Wilmington, Del.). Solutions of the compounds to be tested were prepared by diluting a 60.0 mM stock solution of the compound in DMSO to 600 μM with K buffer (5.0 mM HEPES/KHEPES, pH=7.4). The final DMSO concentration in the solution was 1% v/v. Large unilamellar vesicles comprised of only 1-palmitoyl-2-oleoyl-sn-glycero-3-phosphocholine (POPC LUVs) were prepared and phosphorus and ergosterol content was quantified as described below. The LUV solutions were diluted with buffer and DMSO to give a final phospholipid concentration of 12.0 mM in a 1% DMSO/K buffer solution. Immediately prior to use, all solutions were incubated at 37° C. for 30 minutes and degassed under vacuum at 37° C. for 10 minutes. The reference cell of the instrument (volume=0.190 mL) was filled with a solution of 1% v/v DMSO/K buffer.
Palmitoyl oleoyl phosphatidylcholine (POPC) was obtained as a 20 mg/mL solution in CHCl3 from Avanti Polar Lipids (Alabaster, Ala.) and was stored at −20° C. under an atmosphere of dry argon and used within 1 month. A 4 mg/mL solution of ergosterol in CHCl3 was prepared monthly and stored at 4° C. under an atmosphere of dry argon. […]
NanoAnalyze software (TA Instruments) was used for baseline determination and integration of the injection heats, and Microsoft Excel was used for subtraction of dilution heats and the calculation of overall heat evolved. […] By this method, the overall heat evolved during the experiment was calculated using the following formula: […]

S. cerevisiae = experiment: Broth microdilution MIC assay; assay type: cell-based; conditions: Saccharomyces cerevisiae, 24 hours, 30° C., no visible growth
Protocol: Exemplary methods for antifungal activity assays are as follows:
S. cerevisiae was maintained with yeast peptone dextrose (YPD) growth media consisting of 10 g/L yeast extract, 20 g/L peptone, 20 g/L dextrose, and 20 g/L agar for solid media. The media was sterilized by autoclaving at 250° F. for 30 min. Dextrose was subsequently added as a sterile 40% w/v solution in water (dextrose solutions were filter sterilized). Solid media was prepared by pouring sterile media containing agar (20 g/L) onto Corning (Corning, N.Y.) 100×20 mm polystyrene plates. Liquid cultures were incubated at 30° C. on a rotary shaker and solid cultures were maintained at 30° C. in an incubator.
The protocol for the broth microdilution assay was adapted from the Clinical and Laboratory Standards Institute document M27-A2. Clinical and Laboratory Standards Institute. Reference Method for Broth Dilution Antifungal Susceptibility Testing, M27-A2, Approved Standard 2nd Ed. Vol. 22, Number 15, 2002. 50 mL of YPD media was inoculated and incubated overnight at either 30° C. (S. cerevisiae) or 37° C. (C. albicans) in a shaker incubator. The cell suspension was then diluted with YPD to an OD600 of 0.10 (˜5×10^5 cfu/mL) as measured by a Shimadzu (Kyoto, Japan) PharmaSpec UV-1700 UV/Vis spectrophotometer. […]

healthy mice = experiment: Acute toxicity, single intravenous administration, lethality; assay type: in vivo, mouse
Protocol: FIG. 8 is a graph depicting lethality in healthy mice resulting from single intravenous administrations in the doses indicated of AmB or C2′epiAmB.
In a separate experiment, acute toxicity was determined by single intravenous administration of AmB or C2′epiAmB to healthy mice, followed by monitoring for lethality.

## C[C@@H]1[C@H](O)[C@@H](C)/C=C/C=C/C=C/C=C/C=C/C=C/C=C/[C@H](O[C@@H]2O[C@H](C)[C@@H](O)[C@H](N)[C@H]2O)CC2O[C@](O)(C[C@@H](O)C[C@@H](O)[C@H](O)CC[C@@H](O)C[C@@H](O)CC(=O)O[C@H]1C)C[C@H](O)[C@H]2C(=O)O [C2′epiAmB]
[1]; 10% cholesterol LUVs, 600 μM compound
  Total exotherm: -6.43 ± 2.80 µcal
[1]; within the limits of the binding assay
  Binding to cholesterol (in words): but not cholesterol; also recorded: not found to bind to cholesterol; also recorded: do not bind cholesterol
S. cerevisiae
  MIC: 2 µM (≈ 1.85 µg/mL)
Healthy mice; healthy mice, single intravenous doses up to 16 mg/kg
  Lethality: no deaths observed
Healthy mice; mice
  Acute toxicity compared to AmB (in words): significantly less toxic; also recorded: substantially less toxic to mice
